According to patent US6469149B1 (priority 1997, dated 2002):

Key:
ascorbic acid synthesis = conditions: literature statement; cited from earlier work
[1] = target: T1, L-galactono-γ-lactone dehydrogenase (Brassica oleracea, UniProt O47881); experiment: GLDase activity in the presence of lycorine (reduction of cytochrome c, absorption at 550 nm); type: biochemical, cauliflower (Brassica olecera var. botrytis); design: Activity of the enzyme expressed in increase in absorption at 550 nm/second: scale not given here
T1 construct: The resulting mature protein of 509 amino acids has a calculated molecular mass of 57,837 Da; from tissue; host or cells: cauliflower florets (mitochondrial pellet, acetone-precipitated extract; DEAE, Phenyl Sepharose and Sephacryl gel filtration fractions)
T1 sequence (O47881 92-600): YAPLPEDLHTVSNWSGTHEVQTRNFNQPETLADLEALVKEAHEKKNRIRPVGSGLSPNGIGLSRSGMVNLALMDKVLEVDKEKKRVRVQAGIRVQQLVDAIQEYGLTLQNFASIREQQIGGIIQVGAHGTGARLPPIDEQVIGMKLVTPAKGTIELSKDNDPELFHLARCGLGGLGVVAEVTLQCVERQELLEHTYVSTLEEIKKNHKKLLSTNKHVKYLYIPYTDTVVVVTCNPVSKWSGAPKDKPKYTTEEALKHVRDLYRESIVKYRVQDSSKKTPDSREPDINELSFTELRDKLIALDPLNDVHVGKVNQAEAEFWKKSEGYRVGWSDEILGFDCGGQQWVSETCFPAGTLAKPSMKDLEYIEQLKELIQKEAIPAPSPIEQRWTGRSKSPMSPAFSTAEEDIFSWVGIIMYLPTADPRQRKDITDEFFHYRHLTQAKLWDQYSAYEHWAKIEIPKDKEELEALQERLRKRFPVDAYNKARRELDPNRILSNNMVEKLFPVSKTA
Protocol: The GLDase activity of the fractions was is determined spectrophotometrically by monitoring the L-galactono-γ-lactone dehydrogenase-dependent reduction of cytochrome c at 22° C. A typical reaction mixture contained the enzyme extract, 1.5 mg/ml cytochrome c and 4.2 mM L-galactono-γ-lactone in 0.05 M Tris-HCl buffer (pH 8.4). Reduction of cytochrome c was monitored by determining the absorption increase at 550 nm. Under these conditions the speed of the reaction was linear in respect of time for an initial period of 15 minutes. One unit of enzyme activity was defined as the quantity of enzyme reducing 2 μmol of cytochrome C per minute.
Lycorine was isolated from the plant Crinum asiaticum and the identity of the isolated product was verified by NMR, electron spray mass spectrometry HPLC analysis and capillary electrophoresis. Fractions of L-galactono-γ-lactone dehydrogenase activity isolated from the gel filtration column were tested for their activity in two different buffers in the presence of 5 or 50 μM lycorine (see table 3).

[2] = target: T2, L-galactono-γ-lactone dehydrogenase (Arabidopsis thaliana, UniProt Q9SU56); conditions: literature (De Tullio et al. 1994; Arrigoni et al. 1996); cited from earlier work
T2 sequence (Q9SU56 102-610): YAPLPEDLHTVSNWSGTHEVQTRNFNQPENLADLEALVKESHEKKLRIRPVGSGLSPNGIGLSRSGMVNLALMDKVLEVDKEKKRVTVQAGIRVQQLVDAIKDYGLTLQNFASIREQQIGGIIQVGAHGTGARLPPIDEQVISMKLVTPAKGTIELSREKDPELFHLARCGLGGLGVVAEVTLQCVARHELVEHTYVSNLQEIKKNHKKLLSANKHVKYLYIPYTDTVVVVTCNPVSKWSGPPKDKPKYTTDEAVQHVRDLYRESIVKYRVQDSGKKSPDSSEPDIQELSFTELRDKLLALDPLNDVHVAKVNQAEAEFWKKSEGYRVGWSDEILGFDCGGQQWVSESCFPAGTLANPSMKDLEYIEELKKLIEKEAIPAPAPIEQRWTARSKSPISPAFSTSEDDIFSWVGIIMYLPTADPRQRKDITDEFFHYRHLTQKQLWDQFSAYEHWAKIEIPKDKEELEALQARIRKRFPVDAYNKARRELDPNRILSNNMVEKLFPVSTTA

In the case of `O[C@H]1[C@H]2c3cc4c(cc3CN3CCC(=C[C@@H]1O)[C@H]23)OCO4` [lycorine], the “Concentration at which ascorbic acid synthesis is inhibited” value (ascorbic acid synthesis) is given as at least 1 µM, the “Activity of the enzyme expressed in increase in absorption at 550 nm/second” value ([1]; 5 μM lycorine, 75 mM PO4 pH 7.0, 0 μM control 0.980) is given as 0.857 absorption at 550 nm/second and the “Activity of the enzyme expressed in increase in absorption at 550 nm/second” value ([1]; 5 μM lycorine, 75 mM PO4 pH 7.5, 0 μM control 1.385) is given as 1.372 absorption at 550 nm/second. For the same compound, the “Activity of the enzyme expressed in increase in absorption at 550 nm/second” value ([1]; 5 μM lycorine, 75 mM PO4 pH 8, 0 μM control 1.882) was 1.690 absorption at 550 nm/second, the “Activity of the enzyme expressed in increase in absorption at 550 nm/second” value ([1]; 5 μM lycorine, 75 mM Tris pH 7.4, 0 μM control 3.627) was 3.927 absorption at 550 nm/second and the “Activity of the enzyme expressed in increase in absorption at 550 nm/second” value ([1]; 5 μM lycorine, 75 mM Tris pH 8.2, 0 μM control 6.365) was 6.400 absorption at 550 nm/second. The “Activity of the enzyme expressed in increase in absorption at 550 nm/second” value ([1]; 5 μM lycorine, 75 mM Tris pH 8.9, 0 μM control 5.438) was 5.199 absorption at 550 nm/second, the “Activity of the enzyme expressed in increase in absorption at 550 nm/second” value ([1]; 50 μM lycorine, 75 mM PO4 pH 7.0, 0 μM control 0.980) was 0.842 absorption at 550 nm/second and the “Activity of the enzyme expressed in increase in absorption at 550 nm/second” value ([1]; 50 μM lycorine, 75 mM PO4 pH 7.5, 0 μM control 1.385) was 1.254 absorption at 550 nm/second. The “Activity of the enzyme expressed in increase in absorption at 550 nm/second” value ([1]; 50 μM lycorine, 75 mM PO4 pH 8, 0 μM control 1.882) was 1.768 absorption at 550 nm/second, the “Activity of the enzyme expressed in increase in absorption at 550 nm/second” value ([1]; 50 μM lycorine, 75 mM Tris pH 7.4, 0 μM control 3.627) was 3.743 absorption at 550 nm/second and the “Activity of the enzyme expressed in increase in absorption at 550 nm/second” value ([1]; 50 μM lycorine, 75 mM Tris pH 8.2, 0 μM control 6.365) was 6.127 absorption at 550 nm/second. The “Activity of the enzyme expressed in increase in absorption at 550 nm/second” value ([1]; 50 μM lycorine, 75 mM Tris pH 8.9, 0 μM control 5.438) was 5.507 absorption at 550 nm/second, the “Effect on GLDase activity” value ([1]; 100 μM lycorine, additional tests) was “did not show a decrease in activity” and the “Effect on GLDase activity after pre-incubation” value ([1]; pre-incubation of one hour of the enzyme with lycorine) was “did not influence the enzyme activity”. The “Sensitivity of the isolated GLDase to lycorine” value ([1]; up to a concentration of 50 μM) was “lycorine-insensitive” and the “Inhibition of L-galactono-γ-lactone dehydrogenase” value [2] was “inhibited”.
